Reference: patent US20080033026A1, “Antimicrobial compositions, methods and systems” (priority 2006, published 2008)

Experiments:
[1] = test system: Campylobacter jejuni (ATCC 29428); assay: Preservative effectiveness on food pathogens (US Pharmacopoeia 23); format: cell-based
Protocol: The effectiveness of 9-decenoic acid on food pathogens was determined using the protocol on preservative effectiveness found in the US Pharmacopoeia 23, 1995.
Stock cultures of the Listeria monocytogenes (ATCC 1911-1), Salmonella enteritidis (ATCC 13076) and Campylobacter jejuni (ATCC 29428) were transferred for at least three consecutives days on Trypticase Soy Agar (TSA) and incubated at 30-35° C. for 18-24 hours. On the day of the test, the cells were washed from the agar surface with sterile saline containing 0.05% w/v Polysorbate 80 (SS+) and the suspension was centrifuged at 2000 rpm for 15 minutes and resuspended in SS+. The suspension was diluted to approximately 10^8 CFU/ml.
[…] The samples were dispensed in 20 ml aliquots in sterile test tubes. For each concentration tested, a 0.1 ml aliquot of each inoculum was added to a final concentration of 10^5 to 10^6 CFU/ml. The tubes were incubated at room temperature and sampled on days 0, 1, 2, 4, 7, 14, 21 and 28.
At each sample point, 1.0 ml aliquots were withdrawn, serially diluted and plated in triplicate on TSA. The plates were incubated at 30-35° C. for 2-4 days. The colonies were counted and the average CFU/ml was calculated. Controls for purity, viability and sterility were performed as described previously.
According to the US Pharmacopoeia, a test compound is an effective preservative if the concentrations of viable bacteria remain at or below the initial concentrations during the first fourteen days and after 28 days.
Additionally, test organisms in Tables 9-11 were exposed to the 9-decenoic acid for several minutes before analysis at Day 0. As shown in the Tables 9-11, significant biocidal activity was observed even within this short time period for the test organisms, illustrating the effectiveness of 9-decenoic acid as a biocidal agent.

[2] = test system: Staphylococcus epidermidis (ATCC 12228); assay: Time-kill determination; format: cell-based
Protocol: The assessment of efficacy of 9-decenoic acid against a spectrum of microorganisms was determined using the American Society for Testing and Materials (ASTM) procedure entitled “Standard Test Method for the Assessment of Microbiocidal Activity of Test Materials Using a Time-Kill Procedure,” October 1998. This procedure incorporates the recommendations described in the “Manual of Clinical Microbiology,” 5th ed., edited by A. B. Balows et al., ASM, Washington, and is directed by the Federal Register, June 1994.
Challenge organisms were prepared as follows. Cultures of the following organisms were obtained: Staphylococcus aureus (ATCC 6538), Pseudomonas aeruginosa (ATCC 15442), Staphylococcus epidermidis (ATCC 12228), Klebsiella pneumoniae (ATCC 4352), Escherichia coli 0157:H7 (ATCC 43895) and Candida albicans (ATCC 10231). The stock cultures were transferred to sterile tubes and sterile tryptic soy broth (TSB) was added to the cultures. The mixture was incubated for 18-24 hours at 37° C. (±2° C.). A portion of this culture was then transferred onto TSA plates and incubated for 18-24 hours at 37° C. (±2° C.). The plates were removed from incubation and the bacterial growth was washed from the agar surface using Butterfield's Phosphate Buffered Dilution Water (PBDW).
The bacterial suspension was adjusted to contain approximately 10^8 Colony Forming Units (CFU) per ml with PBDW. The concentration was adjusted to an optical density (OD) of 0.4-0.5 (versus a PBDW blank) at 620 nm in a UV-Vis spectrophotometer, and this optical density gave approximately 10^8 colony forming units per milliliter (cfu/ml). The standardized suspension was stored under appropriate conditions until it was used as the challenge inoculum.
Concentrated 9-decenoic acid (97%) was diluted in filter sterilized isopropanol to yield a 25,000 ppm stock solution. Subsequent dilutions to the 9-decenoic acid stock solutions were made with sterile Deionized Water (DI) to achieve concentrations of 0.1%, 0.05%, 0.01% and 0.001%. The pH was determined for each dilution; pH values ranged from 4.4-4.1. Additionally, 9-decenoic acid stock solution was adjusted to pH 7 with 1 N NaOH and serially diluted with sterile DI to achieve concentrations of 1%, 0.5%, 0.2%, 0.1%, 0.05% and 0.0025%. In addition, 9-decenoic acid stock solution was combined with Triclosan™ (obtained from Ciba Specialty Chemical Corporation, under the tradename Irgasan DP 300™) in various ratios, as indicated in Table 8. The pH of the combined solution was 7.
Compliant with the ASTM procedure cited, for each challenge microorganism a 9.9 ml aliquot of the prepared 9-decenoic acid suspension was added to a sterile tube. A 0.1 ml aliquot of the standardized inoculum was added to the 9-decenoic acid solution representing the start of the test exposure. The inoculated 9-decenoic acid solution was immediately mixed thoroughly. The inoculated suspension was held at room temperature for 0.5, 2, 5, 7 and 10-minute exposure times for tests run at pH level of approximately 4. The pH 7 tests were held at room temperature for 0.5 and 2 minutes.
At each exposure sample time, a 1.0 ml aliquot of the inoculated 9-decenoic acid suspension was transferred to 9.0 ml of D/E Neutralizing Broth. Additional ten-fold serial dilutions were made in PBDW and plated in duplicate on TSA. All plates were incubated for 48 hours at 37° C. (±2° C.) and visually examined for growth. The plates were enumerated, recorded and log kill determined for each time point.
The following study controls were conducted: culture purity, neutralizer sterility, initial suspension population, test population, neutralization verification and a negative control using isopropanol. Culture purity was verified by performing a streak plate for isolated colonies of each culture used. All cultures were determined to be pure based on consistent colony morphology typical for the test organism. The neutralizer sterility was confirmed by no growth in an incubated sample. […]

Compound `C=CCCCCCCCC(=O)O` [9-decenoic acid] has a Log reduction ([1]; 0.0078% 9-decenoic acid, exposure day 0) of 0 log, a Log reduction ([1]; 0.0078% 9-decenoic acid, exposure day 1) of 0.67 log and a Log reduction ([1]; 0.0078% 9-decenoic acid, exposure day 2) of 5.1 log. For the same compound, the Log reduction ([1]; 0.0078% 9-decenoic acid, exposure day 4) was 5.1 log, the Log reduction ([1]; 0.0078% 9-decenoic acid, exposure day 7) was 5.1 log and the Log reduction ([1]; 0.0078% 9-decenoic acid, exposure day 14) was 5.1 log. For the same compound, the Log reduction ([1]; 0.0078% 9-decenoic acid, exposure day 21) was 5.1 log, the Log reduction ([1]; 0.0078% 9-decenoic acid, exposure day 28) was 5.1 log and the Log reduction ([1]; 0.015% 9-decenoic acid, exposure day 0) was 2.8 log. It also gave a Log reduction ([1]; 0.015% 9-decenoic acid, exposure day 1) of 5.1 log, a Log reduction ([1]; 0.015% 9-decenoic acid, exposure day 2) of 5.1 log and a Log reduction ([1]; 0.015% 9-decenoic acid, exposure day 4) of 5.1 log. It also gave a Log reduction ([1]; 0.015% 9-decenoic acid, exposure day 7) of 5.1 log, a Log reduction ([1]; 0.015% 9-decenoic acid, exposure day 14) of 5.1 log and a Log reduction ([1]; 0.015% 9-decenoic acid, exposure day 21) of 5.1 log. The Log reduction ([1]; 0.015% 9-decenoic acid, exposure day 28) was 5.1 log, the Log reduction ([1]; 0.03% 9-decenoic acid, exposure day 0) was 5.1 log and the Log reduction ([1]; 0.03% 9-decenoic acid, exposure day 1) was 5.1 log. It also gave a Log reduction ([1]; 0.03% 9-decenoic acid, exposure day 2) of 5.1 log, a Log reduction ([1]; 0.03% 9-decenoic acid, exposure day 4) of 5.1 log and a Log reduction ([1]; 0.03% 9-decenoic acid, exposure day 7) of 5.1 log. For the same compound, the Log reduction ([1]; 0.03% 9-decenoic acid, exposure day 14) was 5.1 log, the Log reduction ([1]; 0.03% 9-decenoic acid, exposure day 21) was 5.1 log and the Log reduction ([1]; 0.03% 9-decenoic acid, exposure day 28) was 5.1 log. The “Concentration at which effective preservative” value ([1]; US Pharmacopoeia definition, 28 days) was ≤ 0.0078%, the “Exposure time at which bactericidal” value ([1]; at 0.0015%) was 1 days and the “Exposure time at which bactericidal” value ([1]; at 0.0078%) was 2 days. The “Exposure time at which bactericidal” value ([1]; for 0.003%) was 0 days, the Log reduction ([2]; 0.01% 9-decenoic acid, pH 4.4, exposure 0.5 min) was >5.7 log and the Log reduction ([2]; 0.01% 9-decenoic acid, pH 4.4, exposure 2 min) was >5.7 log. For the same compound, the Log reduction ([2]; 0.01% 9-decenoic acid, pH 4.4, exposure 5 min) was >5.7 log, the Log reduction ([2]; 0.01% 9-decenoic acid, pH 4.4, exposure 7 min) was >5.7 log and the Log reduction ([2]; 0.01% 9-decenoic acid, pH 4.4, exposure 10 min) was >5.7 log. The Log reduction ([2]; 0.05% 9-decenoic acid, pH 4.1, exposure 0.5 min) was >5.7 log, the Log reduction ([2]; 0.05% 9-decenoic acid, pH 4.1, exposure 2 min) was >5.7 log and the Log reduction ([2]; 0.05% 9-decenoic acid, pH 4.1, exposure 5 min) was >5.7 log. The Log reduction ([2]; 0.05% 9-decenoic acid, pH 4.1, exposure 7 min) was >5.7 log, the Log reduction ([2]; 0.05% 9-decenoic acid, pH 4.1, exposure 10 min) was >5.7 log and the Log reduction ([2]; 0.1% 9-decenoic acid, pH 4.1, exposure 0.5 min) was >5.7 log. For the same compound, the Log reduction ([2]; 0.1% 9-decenoic acid, pH 4.1, exposure 2 min) was >5.7 log, the Log reduction ([2]; 0.1% 9-decenoic acid, pH 4.1, exposure 5 min) was >5.7 log and the Log reduction ([2]; 0.1% 9-decenoic acid, pH 4.1, exposure 7 min) was >5.7 log. For the same compound, the Log reduction ([2]; 0.1% 9-decenoic acid, pH 4.1, exposure 10 min) was >5.7 log.
